In the assay the test system is surfactant-deficient lavaged rat lungs. The assay can be described thus: Isolated rat lavaged lung model (adult rat lung model), pressure-volume curve. The following applies: for PC5 (% TLC): per cent of total lung capacity at 5 cm H2O pressure, deflation limb of P-V curve / PC10 (% TLC): per cent of total lung capacity at 10 cm H2O pressure, deflation limb of P-V curve: peptide-DPPC mixture (or DPPC alone) instilled into lavaged excised rat lungs, 25 mg phospholipid, 100-125 mg/kg, 37° C.; for RESTORATION % (per cent restoration based on PC5 values): relative to surfactant-sufficient (100) and surfactant-deficient (0) lungs, peptide-DPPC mixture or DPPC alone. Details: species or system rat (male Sprague Dawley). An excerpt:
Methods of testing the synthetic surfactant preparations for efficacy are well known in the art. For example, the synthetic surfactant preparations of the present invention can be tested in any appropriate manner such as in the adult rat lung model (Ikegami, et al., (1979) Pediatr. Res. 13, 777-780). Pressure-volume characteristics of surfactant-depleted rat lungs are similar to those of lungs of infants with hyaline membrane disease and restoration of the pressure-volume relationship of the lung to normal is related to the amount of surfactant instilled in a dose dependent manner. (Bermel, M. S., et al., […] excised rat lungs as a model of surfactant deficiency, Lung 162: 99-113 (1984)). The experimental procedures for animal preparation, pressure-volume curve registration and lung lavage are adapted from those described by Ikegami et al., Pediatr. Res. 11: 178-182 (1977) and Pediatr. Res. 13: 777-780 (1979, and Bermel et al, Lung 162: 99-113 (1984). Male Sprague Dawley rats (200-250 g) are anesthetized with sodium pentobarbital and exsanguinated. The trachea is cannulated and the thoracic organs are removed en bloc. After removal of the adventitious tissue, the trachea and lungs (~2 g) are suspended in saline (0.9%), placed in a vacuum chamber, and degassed according to the procedure of […] et al. the degassed lungs are suspended in saline in a 37° C., jacketed reservoir and the tracheal cannula is connected both to a water manometer and a glass syringe by a T-tube. The glass syringe is placed in an infusion/withdrawal pump. […] The total volume of air infused is recorded as the total lung capacity (TLC) which is generally 14-15 ml. The lungs are then deflated at a rate of 2.5 ml/min until zero pressure is attained. During deflation, pressure is read from the water manometer at 1 cm intervals and recorded. […] After degassing and equilibration, the lungs are rendered surfactant-deficient by repeated lavage with 5 ml/g lavage buffer (0.9% NaCl, 10 mM HEPES, pH 7.4). […] At this point, the lungs are considered surfactant-deficient. […] The mixture is then vortexed again, degassed if foamy, and 2 ml of the test mixture are introduced into and withdrawn from the lungs four times by syringe. When the test mixture is reintroduced to the lungs for the fifth time, it is allowed to remain in the lungs. This procedure is adopted to encourage even distribution of the material throughout the lung. The lungs are degassed, allowed to equilibrate at 37° C. for 5 min, and a P-V measurement is performed. Lungs are studied while supported in saline at 37° C. as opposed to ambient temperature since the physical characteristics of the surfactants may be dependent upon temperature. […] Data are presented in terms of the % TLC. […] Comparisons are based on per cent restoration=([…] ×100/(PC5 (sufficient) -PC5(deficient)) and made by one-way analysis of variance using the general linear models procedure with specific contrasts of the means (SAS Institute Inc., Cary, N.C.). […] The restoration based upon the PC5 values was used to compare the test mixtures.

For the compound `CCCCCCCCCCCCCCCC(=O)OC[C@H](COP(=O)([O-])OCC[N+](C)(C)C)OC(=O)CCCCCCCCCCCCCCC` [DPPC, L-α-dipalmitoylphosphatidylcholine], the “PC5 (% TLC): per cent of total lung capacity at 5 cm H2O pressure, deflation limb of P-V curve” value is 13 ± 1 % TLC; the “PC10 (% TLC): per cent of total lung capacity at 10 cm H2O pressure, deflation limb of P-V curve” value was determined as 31 ± 2 % TLC; the “RESTORATION % (per cent restoration based on PC5 values)” value was determined as 11 ± 8%. In addition, where the note is “DPPC alone, without peptide”, the “effect on the pressure-volume (P-V) curves of the lavaged lung” value is on record as “no significant effect”.

Take “HBB-Aoc-Glu-Trp-Ala-Lys-NH2 [SEQ ID NO: 5]”: the “PC5 (% TLC): per cent of total lung capacity at 5 cm H2O pressure, deflation limb of P-V curve” value was 55 ± 4 % TLC; the “PC10 (% TLC): per cent of total lung capacity at 10 cm H2O pressure, deflation limb of P-V curve” value was 77 ± 2 % TLC; the “RESTORATION % (per cent restoration based on PC5 values)” value is on record as 81 ± 7%.

The values above are taken from US5886156A, “Synthetic peptide lung surfactants having covalently bonded antioxidants” (Merrell Pharmaceuticals Inc., priority 1996, dated 1999).
